Laboratory results as given in patent publication US11524944B2, “2-phenylpyrimidine-4-carboxamides as AHR inhibitors” (Bayer Aktiengesellschaft, priority 2017, dated 2022).

Experiments:
Mouse AhR = target: T1, Mouse AhR (Mus musculus, UniProt P30561); experiment: Transactivation assay in mouse cell line (in vitro assay 2): antagonism; assay type: cell-based; conditions: Hepa 1c1c7 cells, AHR inducible firefly luciferase reporter (DRE), 200 μM kynurenic acid, 20 hours
T1 sequence (P30561 1-848 P471L/N533S/M589L): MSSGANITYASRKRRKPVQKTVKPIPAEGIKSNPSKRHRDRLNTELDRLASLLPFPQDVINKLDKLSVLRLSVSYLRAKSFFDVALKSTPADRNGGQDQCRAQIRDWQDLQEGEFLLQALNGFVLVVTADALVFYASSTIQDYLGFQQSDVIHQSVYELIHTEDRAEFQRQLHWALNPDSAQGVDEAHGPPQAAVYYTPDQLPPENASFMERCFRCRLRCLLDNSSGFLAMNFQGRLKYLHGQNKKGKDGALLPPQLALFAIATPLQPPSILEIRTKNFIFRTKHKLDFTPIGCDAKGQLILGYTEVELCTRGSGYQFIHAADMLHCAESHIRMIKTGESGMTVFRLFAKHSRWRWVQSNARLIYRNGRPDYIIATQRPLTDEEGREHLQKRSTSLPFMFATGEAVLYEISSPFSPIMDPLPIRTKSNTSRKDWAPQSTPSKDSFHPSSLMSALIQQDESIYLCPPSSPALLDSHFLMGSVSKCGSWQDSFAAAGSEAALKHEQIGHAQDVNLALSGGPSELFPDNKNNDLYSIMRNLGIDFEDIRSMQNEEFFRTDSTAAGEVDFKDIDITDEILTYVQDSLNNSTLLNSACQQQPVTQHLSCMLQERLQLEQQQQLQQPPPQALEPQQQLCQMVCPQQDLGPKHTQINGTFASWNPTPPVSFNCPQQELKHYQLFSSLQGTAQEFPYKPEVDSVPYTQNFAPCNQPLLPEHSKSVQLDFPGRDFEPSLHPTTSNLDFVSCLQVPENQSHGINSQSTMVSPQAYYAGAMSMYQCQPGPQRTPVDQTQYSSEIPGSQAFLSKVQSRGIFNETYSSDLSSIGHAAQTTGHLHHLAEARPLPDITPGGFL
Experimental: Examples were tested in selected biological assays one or more times. When tested more than once, data are reported as either average values or as median values, wherein • the average value, also referred to as the arithmetic mean value, represents the sum of the values obtained divided by the number of times tested, and • the median value represents the middle number of the group of values when ranked in ascending or descending order. If the number of values in the data set is odd, the median is the middle value. If the number of values in the data set is even, the median is the arithmetic mean of the two middle values.
Transactivation Assay in Mouse Cell Line (In Vitro Assay 2)
Transactivation assay was carried out in Hepa 1c1c7 cells (ATCC #CRL-2026) endogenously expressing AHR. In addition the cells were stably transfected with an AHR inducible firefly luciferase reporter gene construct that carried AHR-binding sites (DRE) in its promoter. Kynurenic acid is an endogenous AHR activating ligand and was used to prestimulate test cells prior to testing the antagonistic properties of compounds.
In Vitro Assay 2: Antagonism in Mouse Cell Line
Firefly luciferase activity was determined by the SteadyGlo Luciferase Assay System (Promega, #E2550).

Human AhR = target: T2, Human AhR (Homo sapiens, UniProt P35869); experiment: Transactivation assay in human cell line (in vitro assay 1): antagonism; assay type: cell-based; conditions: U87 glioblastoma cells, AHR inducible firefly luciferase reporter (DRE), 150 μM kynurenic acid, 20 hours
T2 construct: host or cells: U87 glioblastoma cells, stably transfected with a DRE firefly luciferase reporter and a constitutive renilla reporter
T2 sequence (P35869 11-848): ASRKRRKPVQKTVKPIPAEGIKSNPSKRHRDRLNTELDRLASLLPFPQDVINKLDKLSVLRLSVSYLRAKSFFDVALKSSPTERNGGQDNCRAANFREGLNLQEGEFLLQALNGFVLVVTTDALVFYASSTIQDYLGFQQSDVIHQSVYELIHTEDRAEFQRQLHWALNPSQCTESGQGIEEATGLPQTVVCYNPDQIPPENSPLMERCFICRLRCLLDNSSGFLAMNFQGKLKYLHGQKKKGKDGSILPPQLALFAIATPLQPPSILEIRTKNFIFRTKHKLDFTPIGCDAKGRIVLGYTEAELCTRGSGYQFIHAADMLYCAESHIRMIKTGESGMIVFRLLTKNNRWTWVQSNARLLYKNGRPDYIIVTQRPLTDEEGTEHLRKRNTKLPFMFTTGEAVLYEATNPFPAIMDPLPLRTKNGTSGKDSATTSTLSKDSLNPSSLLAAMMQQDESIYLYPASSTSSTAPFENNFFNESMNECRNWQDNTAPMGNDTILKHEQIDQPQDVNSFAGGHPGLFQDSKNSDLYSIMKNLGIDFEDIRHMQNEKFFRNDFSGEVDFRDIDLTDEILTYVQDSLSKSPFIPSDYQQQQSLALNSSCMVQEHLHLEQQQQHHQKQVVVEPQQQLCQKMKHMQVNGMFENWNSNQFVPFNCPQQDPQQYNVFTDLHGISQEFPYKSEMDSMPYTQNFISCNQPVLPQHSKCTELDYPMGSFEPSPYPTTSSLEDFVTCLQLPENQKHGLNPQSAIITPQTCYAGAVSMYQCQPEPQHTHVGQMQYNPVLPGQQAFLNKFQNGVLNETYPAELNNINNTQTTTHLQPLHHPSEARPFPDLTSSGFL
In short: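 U87 glioblastoma cells with endogenous AHR, stably transfected with a DRE-driven firefly luciferase reporter and a constitutive Renilla reporter. Cells prestimulated with kynurenic acid before compound addition. Dual luciferase read-out, with Renilla signal used to flag toxicity.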

| SMILES | IC50 (Mouse AhR) [µM] | IC50 (Human AhR) [µM] |
| --- | --- | --- |
| C[C@@H](CO)NC(=O)c1cc(-c2ccc(Cl)cc2)nc(-c2ccc(F)c(Cl)c2)n1 [Example 66, 2-(3-chloro-4-fluorophenyl)-6-(4-chlorophenyl)-N-[(2S)-1-hydroxypropan-2-yl]pyrimidine-4-carboxamide] | 0.148 | 0.0235 |
| C[C@@H](CO)NC(=O)c1cc(-c2ccc(Cl)cc2)nc(-c2cccc(C#N)c2)n1 [Example 70, 6-(4-chlorophenyl)-2-(3-cyanophenyl)-N-[(2S)-1-hydroxypropan-2-yl]pyrimidine-4-carboxamide] | 0.215 | 0.0193 |

Further lines, results first:

| IC50 (Mouse AhR) [µM] | IC50 (Human AhR) [µM] | SMILES |
| --- | --- | --- |
| 0.0815 | 0.0368 | COc1cc(F)cc(-c2nc(C(=O)N[C@@H](C)CO)cc(-c3ccc(Cl)cc3)n2)c1 [Example 76, 6-(4-chlorophenyl)-2-(3-fluoro-5-methoxyphenyl)-N-[(2S)-1-hydroxypropan-2-yl]pyrimidine-4-carboxamide] |
| 0.00237 | 0.0053 | CC(NC(=O)c1cc(-c2ccc(OC(F)(F)F)cc2)nc(-c2cccc(F)c2)n1)C(O)CO (stereo not shown) [Example 79, N-(3,4-dihydroxybutan-2-yl)-2-(3-fluorophenyl)-6-[4-(trifluoromethoxy)phenyl]pyrimidine-4-carboxamide] |
| 0.00691 | 0.00643 | O=C(NC1CCCC(F)(F)C1O)c1cc(-c2ccc(OC(F)(F)F)cc2)nc(-c2cccc(F)c2)n1 (stereo not shown) [Example 80, N-(3,3-difluoro-2-hydroxycyclohexyl)-2-(3-fluorophenyl)-6-[4-(trifluoromethoxy)phenyl]pyrimidine-4-carboxamide] |
